Experimental data: PubChem BioAssay AID1963848 (Molecular Pharmacology Branch, DTP, NCI, 2024)

System: 379773-124-R-J2-PDC spheroid viability
Assay: Anticancer human tumor 379773-124-R-J2-PDC patient-derived endometrial carcinoma cell line growth inhibition [POLQ]
Conditions: spheroids with HUVEC and MSC; for IC50: curve of first compound; for viability, T/C: stronger effect = lower value
Method in brief: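 Three-cell-type spheroids modelling solid tumor plus stroma served as the readout system; POL inhibitors were tested individually and in combination, concentration ranges set by clinical Cmax where known.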
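Note: spheroids exposed to drugs for seven days before readout.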
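Throughout, for viability, T/C: percent viability relative to DMSO vehicle control taken as 100%.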

CC(=O)O[C@H]1C(=O)[C@@]2(C)[C@H]([C@H](OC(=O)c3ccccc3)[C@]3(O)C[C@H](OC(=O)[C@H](O)[C@@H](NC(=O)c4ccccc4)c4ccccc4)C(C)=C1C3(C)C)[C@]1(OC(C)=O)CO[C@@H]1C[C@@H]2O + COC1C(OC(N)=O)C(O)C(Oc2ccc3c(O)c(NC(=O)c4ccc(O)c(CC=C(C)C)c4)c(=O)oc3c2C)OC1(C)C
IC50 (second compound 0.0316 µM): < 9.49 nM
IC50 (second compound 0.1 µM): < 9.49 nM
IC50 (second compound 0.316 µM): < 9.49 nM
IC50 (second compound 1 µM): < 9.49 nM
IC50 (second compound 3.16 µM): < 9.49 nM
IC50 (second compound 10 µM): < 9.49 nM
viability, T/C (second compound 0.0316 µM, first compound 0.00949 µM): 19.1%
viability, T/C (second compound 0.0316 µM, first compound 0.03 µM): 6.48%
viability, T/C (second compound 0.0316 µM, first compound 0.0949 µM): 7.9%
viability, T/C (second compound 0.0316 µM, first compound 0.3 µM): 9.31%
viability, T/C (second compound 0.0316 µM, first compound 0.949 µM): 7.71%
viability, T/C (second compound 0.0316 µM, first compound 3 µM): 5.65%
viability, T/C (second compound 0.1 µM, first compound 0.00949 µM): 23.8%
viability, T/C (second compound 0.1 µM, first compound 0.03 µM): 7.55%
viability, T/C (second compound 0.1 µM, first compound 0.0949 µM): 8.46%
viability, T/C (second compound 0.1 µM, first compound 0.3 µM): 7.94%
viability, T/C (second compound 0.1 µM, first compound 0.949 µM): 6.43%
viability, T/C (second compound 0.1 µM, first compound 3 µM): 6.33%
viability, T/C (second compound 0.316 µM, first compound 0.00949 µM): 18.3%
viability, T/C (second compound 0.316 µM, first compound 0.03 µM): 8.15%
viability, T/C (second compound 0.316 µM, first compound 0.0949 µM): 8.46%
viability, T/C (second compound 0.316 µM, first compound 0.3 µM): 9.54%
viability, T/C (second compound 0.316 µM, first compound 0.949 µM): 7.17%
viability, T/C (second compound 0.316 µM, first compound 3 µM): 6.23%
viability, T/C (second compound 1 µM, first compound 0.00949 µM): 24.1%
viability, T/C (second compound 1 µM, first compound 0.03 µM): 9.6%
viability, T/C (second compound 1 µM, first compound 0.0949 µM): 8.23%
viability, T/C (second compound 1 µM, first compound 0.3 µM): 7.23%
viability, T/C (second compound 1 µM, first compound 0.949 µM): 8.2%
viability, T/C (second compound 1 µM, first compound 3 µM): 6.6%
viability, T/C (second compound 3.16 µM, first compound 0.00949 µM): 22%
viability, T/C (second compound 3.16 µM, first compound 0.03 µM): 8.1%
viability, T/C (second compound 3.16 µM, first compound 0.0949 µM): 9.73%
viability, T/C (second compound 3.16 µM, first compound 0.3 µM): 8.26%
viability, T/C (second compound 3.16 µM, first compound 0.949 µM): 6.92%
viability, T/C (second compound 3.16 µM, first compound 3 µM): 6.09%
viability, T/C (second compound 10 µM, first compound 0.00949 µM): 18.3%
viability, T/C (second compound 10 µM, first compound 0.03 µM): 7.78%
viability, T/C (second compound 10 µM, first compound 0.0949 µM): 7.88%
viability, T/C (second compound 10 µM, first compound 0.3 µM): 7.81%
viability, T/C (second compound 10 µM, first compound 0.949 µM): 6.9%
viability, T/C (second compound 10 µM, first compound 3 µM): 8.24%

CCc1c2c(nc3ccc(O)cc13)-c1cc3c(c(=O)n1C2)COC(=O)[C@]3(O)CC + Nc1ccc(C#CCN(C(=O)Cc2ncc(C(F)(F)F)cc2C(F)(F)F)c2ccc(F)cc2)nn1
IC50 (second compound 0.0316 µM): < 3.16 nM
IC50 (second compound 0.1 µM): 3.52 nM
IC50 (second compound 0.316 µM): < 3.16 nM
IC50 (second compound 1 µM): < 3.16 nM
IC50 (second compound 3.16 µM): < 3.16 nM
IC50 (second compound 10 µM): < 3.16 nM
viability, T/C (second compound 0.0316 µM, first compound 0.00316 µM): 45.5%
viability, T/C (second compound 0.0316 µM, first compound 0.01 µM): 17.6%
viability, T/C (second compound 0.0316 µM, first compound 0.0316 µM): 12.6%
viability, T/C (second compound 0.0316 µM, first compound 0.1 µM): 4.69%
viability, T/C (second compound 0.0316 µM, first compound 0.316 µM): 3.2%
viability, T/C (second compound 0.0316 µM, first compound 1 µM): 1.03%
viability, T/C (second compound 0.1 µM, first compound 0.00316 µM): 53.6%
viability, T/C (second compound 0.1 µM, first compound 0.01 µM): 16.7%
viability, T/C (second compound 0.1 µM, first compound 0.0316 µM): 13.1%
viability, T/C (second compound 0.1 µM, first compound 0.1 µM): 4.92%
viability, T/C (second compound 0.1 µM, first compound 0.316 µM): 1.48%
viability, T/C (second compound 0.1 µM, first compound 1 µM): 0.65%
viability, T/C (second compound 0.316 µM, first compound 0.00316 µM): 48.6%
viability, T/C (second compound 0.316 µM, first compound 0.01 µM): 12.6%
viability, T/C (second compound 0.316 µM, first compound 0.0316 µM): 11.1%
viability, T/C (second compound 0.316 µM, first compound 0.1 µM): 4.23%
viability, T/C (second compound 0.316 µM, first compound 0.316 µM): 1.5%
viability, T/C (second compound 0.316 µM, first compound 1 µM): 0.7%
viability, T/C (second compound 1 µM, first compound 0.00316 µM): 47.8%
viability, T/C (second compound 1 µM, first compound 0.01 µM): 13.7%
viability, T/C (second compound 1 µM, first compound 0.0316 µM): 10.4%
viability, T/C (second compound 1 µM, first compound 0.1 µM): 5.54%
viability, T/C (second compound 1 µM, first compound 0.316 µM): 1.41%
viability, T/C (second compound 1 µM, first compound 1 µM): 3.04%
viability, T/C (second compound 3.16 µM, first compound 0.00316 µM): 47.9%
viability, T/C (second compound 3.16 µM, first compound 0.01 µM): 15.1%
viability, T/C (second compound 3.16 µM, first compound 0.0316 µM): 9.79%
viability, T/C (second compound 3.16 µM, first compound 0.1 µM): 3.28%
viability, T/C (second compound 3.16 µM, first compound 0.316 µM): 1.52%
viability, T/C (second compound 3.16 µM, first compound 1 µM): 0.83%
viability, T/C (second compound 10 µM, first compound 0.00316 µM): 41.9%
viability, T/C (second compound 10 µM, first compound 0.01 µM): 14.7%
viability, T/C (second compound 10 µM, first compound 0.0316 µM): 11.6%
viability, T/C (second compound 10 µM, first compound 0.1 µM): 4.49%
viability, T/C (second compound 10 µM, first compound 0.316 µM): 1.89%
viability, T/C (second compound 10 µM, first compound 1 µM): 0.9%
